The experiment addresses T1, FITC-IFN-α2b (Homo sapiens, UniProt P01563).
T1 construct: single non-glycosylated polypeptide chain with a molecular weight of 19 kDa, comprising 165 amino acids; purchased Millipore Sigma-Aldrich SRP4595-100UG; host or cells: E. coli
The experiment is described as follows: MST binding to FITC-IFN-α2b. On the procedure: Typically, in the labeling process, one amine per protein is labeled, statistically distributing the position of the dye. Consequently, the risk of the label impairing the binding is minimal, given the typical number of lysine residues in proteins. […] The MST assay was performed as detailed in Section 3. […] For IFN- α 2b a concentration of 2.7 μ M was also prepared to compare it with previous results on MST-binding between FILs and IFN- α 2b fluorescently labeled with a different tag. In each run of MST, a maximum concentration of a ligand is selected and consecutively diluted in sixteen capillaries. […] The experimental conditions of the MST assay only allow the study of the aggregation phenomenon individually for the first CAC. For the MST runs with the concentration of the first capillary above the second CAC, the determined K d values for the runs that yield binding are influenced by several aggregates, making it impossible to attribute the K d value to a specific CAC. However, K d comprises the influence of the distinct aggregates of the FIL on binding affinity with both proteins, allowing a qualitative analysis of the impact of the different aggregates on binding affinity.
Microscale thermophoresis (MST) measurements of the dye-labeled protein were used to conduct binding investigations. […] MST tests were conducted in a monolith NT.115 (blue/red) in accordance with the NanoTemper Technologies methodology. Medium MST power and 20% LED power (nano-blue) were set as the instrument’s default settings. For every MST measurement, a PBS buffer was used. The concentration of FITC-BSA was fixed at 0.4 μ M and FITC-IFN- α 2b was tested under two different concentrations (of 0.4 and 2.7 μ M). The ligand was used to create a set of 16 1:1 dilutions, with the starting ligand concentrations ranging from 10 to 400 mM. The typical parameters for MST traces were used for recording: […], 30 s MST power on, and 5 s MST power off. The data from three independently conducted pipetted experiments were examined using NanoTemper Technologies’ MO.Affinity Analysis software, version 2.3.

By Kd is commonly meant the constant that tells how readily two partners part at equilibrium.

Read-outs that look alike come from different tables or passages of the source.

T1 sequence (P01563 24-188): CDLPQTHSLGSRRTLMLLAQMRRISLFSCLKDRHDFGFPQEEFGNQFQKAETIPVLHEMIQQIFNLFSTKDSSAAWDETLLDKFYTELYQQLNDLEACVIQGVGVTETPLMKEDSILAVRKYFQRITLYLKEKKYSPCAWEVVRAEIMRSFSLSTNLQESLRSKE

For `CCn1cc[n+](C)c1.O=S(=O)([O-])C(F)(F)C(F)(F)C(F)(F)C(F)(F)F` [1-ethyl-3-methylimidazolium perfluorobutane sulfonate], the Kd entry (0.41 μM IFN-α2b, max. conc. first capillary below 1st CAC (monomer)) is “no binding detected”; the Kd (0.41 μM IFN-α2b, max. conc. first capillary in 2nd CAC range, 25 °C, read-out: Kd) was determined as 0.71 ± 0.37 mM; the Kd (0.41 μM IFN-α2b, max. conc. first capillary in 4th CAC range, 25 °C, read-out: Kd) worked out at 6.28 ± 1.09 mM; the Kd (2.7 μM IFN-α2b, max. conc. first capillary in 1st CAC range, 25 °C, read-out: Kd) was determined as 9.1 ± 6.38 mM; the Kd (2.7 μM IFN-α2b, max. conc. first capillary in 3rd CAC range, 25 °C, read-out: Kd) was determined as 29.9 ± 6.27 mM.

For the origin of these results see publication PMC10931833, “Simultaneous Purification of Human Interferon Alpha-2b and Serum Albumin Using Bioprivileged Fluorinated Ionic Liquid-Based Aqueous Biphasic Systems” (International Journal of Molecular Sciences, 2024).
